The numbers were not newly measured in patent publication US10675240B2 (priority 2014, dated 2020), which cites them from elsewhere.

Each structure is given as a SMILES string.

For this data set the following is noted: background statement.

Regarding `CC1=CC[C@H]2C[C@@H]1C2(C)C` [α-Pinene, (1S,5S)-2,6,6-Trimethylbicyclo[3.1.1]hept-2-ene], the human pulmonary uptake is reported as 60%.
